Test results published in PMC4057896 (Journal of molecular biology, 2014).
“Also recorded” adds a separate entry of the source.

Tests used:
[1] = test system: hexon trimers; conditions: in vitro; ref [15]; cited from earlier work
[2] = test system: hexon trimer; assay: Native MS of endogenous hexon-pVIn complexes from heat-disrupted virions; assay type: binding, human adenovirus (Ad5F35)
[3] = test system: hexon trimer; assay: Native MS of hexon-pVIn reconstituted from purified hexon and synthetic pVIn; assay type: binding, human adenovirus (Ad5 hexon)
[4] = 150 mM ammonium acetate pH 5, released fraction
[5] = 1:2 hexon:pVIn, pH range 4–9, native MS, triplicate

Substance	affinity for hexon trimers [1]	binding of pVIn to hexon trimer at pH 5 [2, 4]	pVIn molecules/hexon trimer at pH 5 [2, 4]	binding of pVIn to hexon trimer at pH 9 ([2]; 150 mM ammonium acetate pH 9, released fraction)	strength of hexon-pVIn interaction at cytosolic pH [3, 5]	strength of hexon-pVIn interaction at endosomal pH [3, 5]	dissociation of hexon-pVIn towards pH 8 ([3]; 1:2 hexon:pVIn, pVIn 1 µM, hexon trimer 0.5 µM, native MS, 150 mM ammonium acetate, triplicate)	residual endogenous pVIn bound to purified hexons ([3]; hexons isolated from virus-infected cells, no synthetic pVIn added, native MS)
pVI: 250 aa precursor of human adenovirus minor capsid protein VI	high affinity; also recorded: nanomolar affinity	–	–	–	–	–	–	–
MEDINFASLAPRHGSRPFMGNWQDIGTSNMSGG [pVIn]	–	nearly complete binding; also recorded: fully retained on hexon trimers	3 pVIn molecules/hexon trimer	only free hexon trimers were recovered and detected	relatively weak	strongest	near-complete dissociation	approximately 3 % of maximum occupancy
